# ChEMBL document CHEMBL1201862, “PubChem BioAssay data set” (2004)
# The source made the active and inactive calls.
# How the values were obtained:
# Estrogen receptor = target: T1, Estrogen receptor (Homo sapiens, UniProt P03372);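 further: potency for inhibiting coactivator peptide recruitment to the receptor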
# T1 sequence (P03372 whole entry): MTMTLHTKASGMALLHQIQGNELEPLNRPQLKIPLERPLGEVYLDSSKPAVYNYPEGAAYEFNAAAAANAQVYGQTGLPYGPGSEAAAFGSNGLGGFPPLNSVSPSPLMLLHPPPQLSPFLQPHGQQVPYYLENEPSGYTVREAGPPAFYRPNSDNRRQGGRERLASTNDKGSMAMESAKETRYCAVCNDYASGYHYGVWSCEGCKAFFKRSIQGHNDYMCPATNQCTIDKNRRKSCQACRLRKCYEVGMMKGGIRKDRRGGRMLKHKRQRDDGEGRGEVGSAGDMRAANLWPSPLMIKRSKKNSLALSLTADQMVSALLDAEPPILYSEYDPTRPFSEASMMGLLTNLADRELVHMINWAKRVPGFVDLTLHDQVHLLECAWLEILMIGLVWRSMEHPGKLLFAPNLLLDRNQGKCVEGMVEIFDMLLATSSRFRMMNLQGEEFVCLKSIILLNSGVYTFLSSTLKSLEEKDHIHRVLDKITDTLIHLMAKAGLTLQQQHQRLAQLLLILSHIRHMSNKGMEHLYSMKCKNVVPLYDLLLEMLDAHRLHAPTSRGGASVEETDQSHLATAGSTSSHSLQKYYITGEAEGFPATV
# [1] = microbe, parasite or virus in culture; type: functional; details: Mycobacterium tuberculosis
# [2] = blockers of HIV-1 envelope-mediated cell-cell fusion – cherry-pick, dose response (AID 652057); type: functional, cell-based
# [3] = blockers of HIV-1 ZM109 envelope-driven cell-cell fusion – HeLa effector, CEM target cells, luciferase, cherry-pick, dose response (AID 652058); type: functional, cell-based;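 further: luciferase signal from HIV-1 Env mediated cell-cell fusion of effector and target cells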
# [4] = off-target signal loss in HeLa-CEM21 co-culture – HeLa F-luc CTL cells, cherry-picked, counter-screen for HIV-1 Env fusion inhibitor project, dose response (AID 652040); type: functional, cell-based;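 further: potency for signal decrease marking cytotoxic or nonspecific inhibition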
# [5] = HIV-1 AD8 envelope cell-cell fusion blockers – cherry-pick, dose response (AID 652062); type: functional, cell-based;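 further: luciferase signal from cell-cell fusion driven by HIV-1 clade B AD8 Env; potency is for inhibitors of fusion seen as a drop in luminescence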
# Cytochrome P450 1A2 = target: T2, Cytochrome P450 1A2 (Homo sapiens, UniProt P05177);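 further: PubChem cytochrome P450 panel assay, CYP1A2 panel member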
# T2 sequence (P05177 whole entry): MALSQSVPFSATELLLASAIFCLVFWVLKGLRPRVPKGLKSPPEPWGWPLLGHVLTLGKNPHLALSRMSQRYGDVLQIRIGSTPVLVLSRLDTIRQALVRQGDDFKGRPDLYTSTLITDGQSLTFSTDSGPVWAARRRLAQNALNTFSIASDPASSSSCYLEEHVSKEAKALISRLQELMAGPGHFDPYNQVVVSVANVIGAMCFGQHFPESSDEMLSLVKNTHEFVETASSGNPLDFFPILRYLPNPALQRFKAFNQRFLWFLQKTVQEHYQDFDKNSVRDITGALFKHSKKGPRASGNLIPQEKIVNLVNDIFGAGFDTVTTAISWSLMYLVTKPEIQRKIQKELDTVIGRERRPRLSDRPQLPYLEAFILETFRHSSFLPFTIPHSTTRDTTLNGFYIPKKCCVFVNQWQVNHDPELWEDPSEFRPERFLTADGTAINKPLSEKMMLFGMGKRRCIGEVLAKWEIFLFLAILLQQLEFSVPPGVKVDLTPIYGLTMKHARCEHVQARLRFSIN
# [6] = target: T3, Calpain-2 catalytic subunit (Sus scrofa, UniProt P43367); experiment: m-calpain protease blockers, concentration series – biochemical, fluorogenic peptide substrate, dose response (AID 1420); type: functional
# T3 sequence (P43367 whole entry): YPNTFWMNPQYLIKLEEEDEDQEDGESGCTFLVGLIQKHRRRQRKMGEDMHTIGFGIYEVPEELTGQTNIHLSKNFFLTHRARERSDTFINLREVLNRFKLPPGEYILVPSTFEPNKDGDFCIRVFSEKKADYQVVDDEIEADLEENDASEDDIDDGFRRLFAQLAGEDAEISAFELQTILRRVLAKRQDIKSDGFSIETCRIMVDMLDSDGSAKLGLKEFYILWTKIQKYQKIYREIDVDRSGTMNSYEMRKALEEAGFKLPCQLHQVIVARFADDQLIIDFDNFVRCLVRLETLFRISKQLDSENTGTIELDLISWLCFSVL
# [7] = target: T4, Ubiquitin-conjugating enzyme E2 N (Homo sapiens, UniProt P61088); type: functional;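 further: Dose-response confirmation in a TR-FRET assay detecting UBC13-driven polyubiquitin chain formation, inhibition measured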
# T4 sequence (P61088 whole entry): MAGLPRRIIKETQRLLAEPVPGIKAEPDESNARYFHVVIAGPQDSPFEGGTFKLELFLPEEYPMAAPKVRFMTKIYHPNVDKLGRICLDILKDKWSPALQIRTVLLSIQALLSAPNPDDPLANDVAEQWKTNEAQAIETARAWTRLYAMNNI
# Prothrombin = Prothrombin (Homo sapiens, UniProt P00734); experiment: Thrombin 1536 HTS Dose Response Confirmation. [Related pubchem assays: 1046 (Thrombin 1536 HTS; hits were confirmed in this assay)]; type: functional
# [8] = Trypanosoma cruzi growth suppression in host cells – NIH3T3 host cells, beta-gal luminescence, confirmation (AID 2044); type: functional, cell-based;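 further: intracellular parasites grown in NIH/3T3 mouse fibroblasts as host cells; luminescent beta-galactosidase reporter signal from transgenic T. cruzi replicating inside host cells; inhibitors lower the luminescence signal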
# [9] = NIH3T3 cell viability loss – ATP luminescence, mouse fibroblasts, counter-screen, dose response (AID 2010); type: functional, cell-based;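 further: cells exposed to compound for about 90 hours before reading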
# [10] = viability of uninfected HEp-2 cells – cell-based, HTS, cytotoxicity control for RSV inhibitor project, dose response (AID 2410); type: functional; details: human respiratory syncytial virus
# [11] = system: Streptococcus sp. 'group A'; experiment: Streptococcus pyogenes SK(-)GAS viability under kanamycin – luminescence, BacTiterGlo, confirmation, counter-screen for streptokinase expression inhibitor project, dose response (AID 1900); type: functional, organism-based
# Streptococcus = experiment: GAS UMAA2166 growth inhibition – luminescence, BacTiterGlo, counter-screen for streptokinase expression inhibitor project, dose response (AID 1915); type: functional, organism-based;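 further: potency for reduction of bacterial viability or growth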
# INS1 = experiment: INS-1E survival protection against cytokine death – cell-based, luminescence, retest, dose response (AID 449756); type: functional; details: Rattus norvegicus;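 further: cell death triggered by IL-1 beta plus TNF-alpha plus IFN-gamma mixture; protective hits raise ATP signal compared with cytokine alone wells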
# Cytochrome P450 2C9 = Cytochrome P450 2C9 (Homo sapiens, UniProt P11712)
# BJ [12] = experiment: BJ-TERT fibroblast viability loss – cell-based, RAS-independent, luminescence, dose response (AID 1933); type: functional; details: Homo sapiens
# BJ [13] = experiment: cells; type: functional, cell-based; details: Homo sapiens
# BJ [14] = experiment: BJ-TERT-LT-ST fibroblast viability loss – cell-based, RAS-independent, luminescence, dose response (AID 1935); type: functional; details: Homo sapiens;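 further: BJ fibroblasts immortalized with TERT plus LT and ST oncogenes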
# [15] = DRD fibroblast viability loss – cell-based, non-viral oncogenic, luminescence, dose response (AID 1934); type: functional; details: Homo sapiens
# [16] = target: T5, Replicative DNA helicase DnaB (Mycobacterium tuberculosis, UniProt P9WMR3); experiment: DnaB intein splicing inhibitors, dose response, biochemical, cell-free fluorescence (AID 449749); type: functional
# T5 sequence (P9WMR3 whole entry): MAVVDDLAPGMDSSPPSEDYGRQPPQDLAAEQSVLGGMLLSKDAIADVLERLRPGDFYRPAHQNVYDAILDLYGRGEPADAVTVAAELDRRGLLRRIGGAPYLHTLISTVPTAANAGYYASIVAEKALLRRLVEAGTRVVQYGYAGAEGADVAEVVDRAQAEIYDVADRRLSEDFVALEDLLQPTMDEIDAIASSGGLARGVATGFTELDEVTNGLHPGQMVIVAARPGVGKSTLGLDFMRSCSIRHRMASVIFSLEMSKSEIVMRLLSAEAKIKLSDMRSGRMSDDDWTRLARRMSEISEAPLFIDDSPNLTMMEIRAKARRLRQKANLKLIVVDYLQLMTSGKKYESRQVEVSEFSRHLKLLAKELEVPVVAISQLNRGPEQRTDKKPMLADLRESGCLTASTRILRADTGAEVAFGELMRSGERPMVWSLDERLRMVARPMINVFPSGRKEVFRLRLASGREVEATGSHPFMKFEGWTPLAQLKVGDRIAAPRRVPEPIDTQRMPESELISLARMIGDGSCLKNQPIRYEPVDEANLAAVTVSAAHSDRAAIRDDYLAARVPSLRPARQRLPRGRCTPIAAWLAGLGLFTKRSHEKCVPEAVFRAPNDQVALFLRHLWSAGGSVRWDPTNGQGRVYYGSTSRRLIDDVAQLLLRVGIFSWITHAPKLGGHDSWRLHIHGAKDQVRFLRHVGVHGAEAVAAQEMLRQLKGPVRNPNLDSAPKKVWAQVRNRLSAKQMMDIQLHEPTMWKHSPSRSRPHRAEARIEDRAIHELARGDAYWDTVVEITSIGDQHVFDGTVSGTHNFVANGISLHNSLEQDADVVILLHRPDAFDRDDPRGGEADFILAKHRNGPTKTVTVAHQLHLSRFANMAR
# Protein RecA = target: T6, Protein RecA (Mycobacterium tuberculosis, UniProt P9WHJ3); experiment: Fluorescence Cell-Free Homogeneous Dose Retest to Identify Inhibitors of RecA-Intein Splicing Activity. [Related pubchem assays (depositor defined):AID2097, AID2223, AID489010, AID492950]; type: functional
# T6 sequence (P9WHJ3 whole entry): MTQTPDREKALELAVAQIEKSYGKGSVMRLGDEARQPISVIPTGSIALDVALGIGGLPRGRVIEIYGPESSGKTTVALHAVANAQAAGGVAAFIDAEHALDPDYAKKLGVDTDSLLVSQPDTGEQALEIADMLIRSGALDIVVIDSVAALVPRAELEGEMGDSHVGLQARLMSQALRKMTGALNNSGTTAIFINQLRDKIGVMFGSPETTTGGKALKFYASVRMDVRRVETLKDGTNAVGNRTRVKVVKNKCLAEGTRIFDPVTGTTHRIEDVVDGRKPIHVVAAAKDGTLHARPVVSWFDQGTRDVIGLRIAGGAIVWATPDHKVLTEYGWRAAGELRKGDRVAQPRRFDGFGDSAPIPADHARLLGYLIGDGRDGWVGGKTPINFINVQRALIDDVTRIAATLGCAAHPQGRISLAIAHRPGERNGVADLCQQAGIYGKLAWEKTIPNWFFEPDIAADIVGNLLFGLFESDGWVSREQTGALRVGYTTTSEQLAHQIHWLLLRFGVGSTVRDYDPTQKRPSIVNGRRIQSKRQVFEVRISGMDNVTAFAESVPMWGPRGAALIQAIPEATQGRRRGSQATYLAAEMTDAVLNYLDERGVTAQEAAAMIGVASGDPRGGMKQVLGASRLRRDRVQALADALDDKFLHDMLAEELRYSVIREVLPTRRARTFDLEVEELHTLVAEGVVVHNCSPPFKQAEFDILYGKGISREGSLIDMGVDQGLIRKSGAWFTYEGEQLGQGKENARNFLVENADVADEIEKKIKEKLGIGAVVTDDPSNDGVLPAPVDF
# Chain of Cytochrome P450 2C9 (P11712 whole entry): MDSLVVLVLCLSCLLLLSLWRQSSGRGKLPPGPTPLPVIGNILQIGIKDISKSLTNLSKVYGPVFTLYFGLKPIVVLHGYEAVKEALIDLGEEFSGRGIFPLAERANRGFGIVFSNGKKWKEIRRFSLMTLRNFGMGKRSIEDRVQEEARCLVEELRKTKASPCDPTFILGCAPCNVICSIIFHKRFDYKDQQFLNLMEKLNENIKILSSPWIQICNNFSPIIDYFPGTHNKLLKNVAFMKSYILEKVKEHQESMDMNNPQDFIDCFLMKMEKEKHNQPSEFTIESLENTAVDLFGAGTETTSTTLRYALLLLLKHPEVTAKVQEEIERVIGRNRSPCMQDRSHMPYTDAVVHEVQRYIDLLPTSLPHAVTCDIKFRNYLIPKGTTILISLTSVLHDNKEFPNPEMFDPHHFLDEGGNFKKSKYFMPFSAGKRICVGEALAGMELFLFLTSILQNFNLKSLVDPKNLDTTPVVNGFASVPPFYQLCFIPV
smiles,measurement,setting,value
COc1cc(NC(=O)c2cccs2)c(C(=O)OCC(=O)NCc2ccco2)cc1OC,IC50,Estrogen receptor,14.8 µM (active)
same,CC50,[1],> 40 µM (active)
Cc1ccc(-c2csc3nc4c5ccccc5c(NCCCN5CCOCC5)nn4c(=O)c23)cc1,CC50,[1],13.6 µM (active)
Cn1c(=O)n(-c2cccc(Cl)c2)c(=O)c2c3c(sc21)COC(C)(C)C3,AC50,[2],3.65 µM (active)
same,AC50,[3],3.36 µM (active)
same,AC50,[4],6.71 µM (active)
same,AC50,[5],1.37 µM (active)
same,AC50,Cytochrome P450 1A2,14.1 µM (inconclusive)
COc1cccc(C(=O)N2c3ccccc3Sc3ccccc32)c1,IC50,[6],6.88 µM (not active)
Cc1cccc(NS(=O)(=O)c2ccc(C(=O)N3CCN(c4ccccc4O)CC3)cc2)c1C,CC50,[1],36.6 µM (active)
NC(=O)CCn1c(C(=O)c2cc(Cl)c(N)c(Cl)c2)c2ccccc2[n+]1[O-],IC50,[7],> 20 µM (inactive)
CCOc1ccc(N2C(=O)C3C(c4ccccc4)=NN(c4ccccc4)C3C2=O)cc1 (stereo not drawn),IC50,[7],> 20 µM (inactive)
Cc1cc(C)cc(OCC(=O)NNC(=O)CN2C(=O)c3ccccc3C2=O)c1,IC50,Prothrombin,> 50 µM (not active)
CCC(C(=O)OCC(=O)Nc1ccc(SC(F)F)cc1)c1ccccc1 (stereo not drawn),EC50,[8],1.68 µM (active)
same,IC50,Prothrombin,> 50 µM (not active)
same,IC50,[6],7.17 µM (not active)
same,EC50,[9],> 60 µM (not active)
COc1ccc2cc(C(=O)N3CCCCCC3)sc(=O)c2c1OC,IC50,[6],11.1 µM (active)
CC(C)c1ccc(NC(S)=Nc2ccc3c[nH]nc3c2)cc1,CC50,[10],37.9 µM (active)
same,IC50,Prothrombin,2.49 µM (active)
N=C(NNC(=O)c1sccc1OCc1ccc(Cl)cc1Cl)c1ccccn1,EC50,[11],3.89 µM (active)
same,CC50,[1],6.31 µM (active)
same,EC50,Streptococcus,> 150 µM (not active)
same,AC50,INS1,5.2 µM (active)
C=CCn1c(SCc2c(C)noc2C)nc2cc(C(=O)O)ccc2c1=O,IC50,Prothrombin,> 50 µM (not active)
CNC[C@H](Cc1cccc2ccccc12)NC[C@H](CCSC)NCC1CCC(C(C)(C)C)CC1 (stereo partly drawn),CC50,[1],25.4 µM (active)
CCC(CC)NC(=O)COC(=O)c1ccc(OCC(=O)Nc2ccccc2OC)c(OC)c1,IC50,[6],18.5 µM (not active)
CCCc1cnc(NCCNCC(O)COc2ccc(Cl)c(Cl)c2)nc1 (stereo not drawn),CC50,[1],22.1 µM (active)
CC(C)c1onc(C(=O)Nc2cccc(Cl)c2)c1[N+](=O)[O-],IC50,[6],2.32 µM (not active)
CCc1nc2ccccc2c(C(=O)OCC(=O)C(C)(C)C)c1C,IC50,Prothrombin,> 50 µM (not active)
CC[C@H](C)[C@@H](CN[C@H](C)CNC)NCCC(c1ccccc1)c1ccccc1,IC50,[7],> 20 µM (inactive)
Cc1ccc(C(=O)O)cc1N1C(=O)c2cccc3cc(Br)cc(c23)C1=O,IC50,[6],7.36 µM (not active)
same,AC50,Cytochrome P450 2C9,15.8 µM (inconclusive)
Cn1c(N)c(C(=O)COC(=O)CCC2CCCC2)c(=O)n(C)c1=O,IC50,[6],15.5 µM (not active)
CCOC(=O)c1[nH]c(C)c(C(=O)c2ccc(C)cc2)c1C,EC50,BJ [12],3.19 µM (inconclusive)
same,EC50,BJ [13],23.5 µM (active)
same,EC50,BJ [14],27.4 µM (inconclusive)
same,EC50,[15],3.16 µM (active)
O=c1c2c(-c3ccccc3)csc2ncn1/N=C/c1ccc(O)c([N+](=O)[O-])c1,IC50,[6],9.57 µM (not active)
COc1ccccc1C(=O)n1nc(-c2ccco2)nc1N,IC50,Prothrombin,6.93 µM (active)
Nc1nc(-c2ccco2)nn1C(=O)c1ccc(Cl)cc1,IC50,Prothrombin,1.46 µM (active)
same,AC50,[16],14 µM (active)
same,EC50,Protein RecA,55.4 µM (active)
